Source: patent US9932352B2, “Compounds for the treatment of ischemia-reperfusion-related diseases” (MINERVA PATENTS S.A., priority 2012, dated 2018)

Tests used:
p38 MAPK protein = experiment: Dephosphorylation of p38 MAPK protein in serum-deprived PC12 cells (Western blotting); assay type: cell-based, rat; conditions: serum deprivation 6 hours, NGF 10 ng/ml or compounds 10 μm, 30 minutes, WB
Experimental: PC12 cells were cultured in the absence of serum, exactly as described above in example 5, and treated for 30 minutes with NGF, at the final concentration of 10 ng/ml, or alternatively with the compounds of formula I, at the final concentration of 10 μm; the cells were subsequently lysed and analysed by WB, using antibodies specific for the phosphorylated form of the enzyme.
A homogeneity control of protein load on gel, normalisation with β-actin is reported. (FIG. 3).

Murine cardiomyocytes = experiment: Apoptosis induced by ROS after hypoxia/reperfusion, Annexin-V flow cytometry; assay type: cell-based; conditions: cells cultured in hypoxia, end of reperfusion period, vs controls
TrkA receptor = molecular target: T1, TrkA receptor (Rattus norvegicus, UniProt P35739); experiment: Autophosphorylation of the TrkA receptor in PC12 cells (Western blotting); assay type: cell-based; conditions: serum-free 6 hours, NGF 10 ng/ml or compounds 10 μm, 20 minutes, WB, ratio to total TrkA
T1 construct: Autophosphorylation of the TrkA receptor on PC12 cells when incubated with NGF or with a mimetic; endogenous in cells; host or cells: PC12 rat pheochromocytoma cells
Experimental: Cells of the continuous PC12 pheochromocytoma rat line were cultured at a concentration of 4×10^5/ml in RPMI 1640 medium, supplemented with 5% glutamine, antibiotics, and in the absence of serum, in 24-well plates for 6 hours. Subsequently, NGF at a final concentration of 10 ng/ml or alternatively the compounds of formula (I), at the final concentration of 10 μm, were added to these cultures. After 20 minutes, the cells were thus lysed in RIPA buffer (20 mM Tris-HCl, pH 7.5, 150 mM NaCl, 1 mM Na2 EDTA, 1 mM EGTA, 1% NP-40, 1% sodium deoxycholate, 25 mM sodium pyrophosphate, 1 mMβ-glycerophosphate, 1 mM Na3VO4, 1 μg/ml leupeptin) for biochemical analysis by means of Western blotting (WB) technique, using specific antibodies for the phosphorylated form of the tyrosines 490, 674/675 or 785.
The graphs show the phosphorylation values of the indicated tyrosines (Y490, Y674/675, Y785), expressed as the ratio of the intensities of the bands observed in WB, developed with the respective anti-phosphotyrosine antibodies, to the band relating to the total TrkA protein. It is clear that the mimetics very strongly induce the phosphorylation of Y490 and much less that of the other tyrosines.

MKP-1 protein = experiment: Induction of MKP-1 protein expression in PC12 cells (Western blotting); assay type: cell-based, rat; conditions: serum-free, NGF 10 ng/ml or compounds 10 μm, 30 minutes, WB densitometry
Experimental: PC12 cells were cultured in the absence of serum, exactly as described above in example 5, and then treated for 30 minutes with NGF, at the final concentration of 10 ng/ml, or alternatively with the compounds of formula (I), at the final concentration of 10 μm; subsequently, the cells were lysed, and analysed by WB, using antibodies specific for the MKP-1 protein.

T1 sequence (P35739 33-799): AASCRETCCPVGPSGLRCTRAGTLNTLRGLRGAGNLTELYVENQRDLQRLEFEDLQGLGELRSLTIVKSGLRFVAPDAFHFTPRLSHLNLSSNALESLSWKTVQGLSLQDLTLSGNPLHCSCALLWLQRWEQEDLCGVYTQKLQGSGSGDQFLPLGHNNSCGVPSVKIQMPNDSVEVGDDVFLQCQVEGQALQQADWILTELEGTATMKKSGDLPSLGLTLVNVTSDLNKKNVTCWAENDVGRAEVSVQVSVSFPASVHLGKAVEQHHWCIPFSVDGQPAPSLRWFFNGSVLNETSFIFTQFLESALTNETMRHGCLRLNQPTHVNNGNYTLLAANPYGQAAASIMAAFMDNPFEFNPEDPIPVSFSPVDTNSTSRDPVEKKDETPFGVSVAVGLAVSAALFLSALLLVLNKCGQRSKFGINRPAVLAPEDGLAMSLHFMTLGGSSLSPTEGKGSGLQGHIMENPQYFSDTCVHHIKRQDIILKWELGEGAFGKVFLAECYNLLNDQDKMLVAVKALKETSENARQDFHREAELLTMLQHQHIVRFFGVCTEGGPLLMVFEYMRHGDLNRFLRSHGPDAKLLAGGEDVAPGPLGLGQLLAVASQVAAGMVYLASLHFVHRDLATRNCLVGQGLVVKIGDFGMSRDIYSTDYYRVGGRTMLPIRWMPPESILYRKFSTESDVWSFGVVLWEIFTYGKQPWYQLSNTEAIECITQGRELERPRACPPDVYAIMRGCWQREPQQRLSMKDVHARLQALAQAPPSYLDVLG

Substance: NGF: recombinant human NGF, the native neurotrophin used as comparator at 10 ng/ml
- dephosphorylation of p38 MAPK (p38 MAPK protein): marked dephosphorylation of p38 MAPK
- percentage of apoptotic cells (Annexin-V positive) (Murine cardiomyocytes): much lower percentage of apoptotic cells than the controls
- phosphorylation of TrkA tyrosines 490, 674/675, 785 (TrkA receptor): invariably induced the phosphorylation of all tyrosines
- MKP-1 protein levels (ratio MKP1 band to β-actin) (MKP-1 protein): significantly higher than the control
